Laboratory results from patent US6376497B1, “Antifungal azole derivatives having a fluorinated vinyl group and process for preparing same” (Korea Research Institute of Chemical Technology, priority 1999, dated 2002).
Values after ≈ are worked out from the molar mass of the structure shown. Read-outs that look alike come from different tables or passages of the source.

Legend:
mouse [1] = details: oral; cited from earlier work
mouse [2] = details: intravenous; cited from earlier work
[3] = system: Aspergillus furnigatus B. 19119; assay: In vitro antifungal activity, microbroth dilution MIC; type: cell-based; details: A furnigatus B. 19119, RPMI-1640, 35° C., 4 to 48 hours
Procedure, shortened: (§1)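 Broth microdilution adapted from NCCLS M27, in RPMI-1640 with 0.165 M MOPS, pH 7.0. Yeast or mould inoculum at 2×10^3 CFU/ml was mixed 1:1 with DMSO-derived compound solutions (200 to 0.10 μg/ml before mixing) and incubated at 35 °C for 4 to 48 h. MIC was the concentration showing no growth.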

[4] = system: Aspergillus niger A. 16404; assay: as above; type: cell-based; details: A. niger A. 16404, RPMI-1640, 35° C., 4 to 48 hours
Procedure, shortened: as §1

[5] = system: Candida albicans A. 10231; assay: as above; type: cell-based; details: C. albicans A. 10231, RPMI-1640, 35° C., 4 to 48 hours
Procedure, shortened: as §1

Candida albicans C1-2 = assay: as above; type: cell-based; details: C. albicans C1-2, RPMI-1640, 35° C., 4 to 48 hours
Procedure, shortened: as §1

[6] = system: Candida albicans IFO. 1385; assay: as above; type: cell-based; details: C. albicans IFO. 1385, RPMI-1640, 35° C., 4 to 48 hours
Procedure, shortened: as §1

Candida krusei K. 11655 = assay: as above; type: cell-based; details: C. krusei K. 11655, RPMI-1640, 35° C., 4 to 48 hours
Procedure, shortened: as §1

[7] = system: Candida parapsitosis A. 7330; assay: as above; type: cell-based; details: C. parapsitosis A. 7330, RPMI-1640, 35° C., 4 to 48 hours
Procedure, shortened: as §1

[8] = system: Candida tropicalis A. 13803; assay: as above; type: cell-based; details: C. tropicalis A. 13803, RPMI-1640, 35° C., 4 to 48 hours
Procedure, shortened: as §1

[9] = system: Cryptococcus neoformans A. 34144; assay: as above; type: cell-based; details: Cry. neoformans A. 34144, RPMI-1640, 35° C., 4 to 48 hours
Procedure, shortened: as §1

[10] = system: Cryptococcus neoformans B. 42419; assay: as above; type: cell-based; details: Cry. neoformans B. 42419, RPMI-1640, 35° C., 4 to 48 hours
Procedure, shortened: as §1

[11] = system: Cryptococcus neoformans IFM. 40092; assay: as above; type: cell-based; details: Cry. neoformans IFM. 40092, RPMI-1640, 35° C., 4 to 48 hours
Procedure, shortened: as §1

[12] = system: Torulopsis glabrata B. 16205; assay: as above; type: cell-based; details: T. glabrata B. 16205, RPMI-1640, 35° C., 4 to 48 hours
Procedure, shortened: as §1

[13] = system: Trichophyton mentagrophytes A. 9129; assay: as above; type: cell-based; details: T. mentagrophytes A. 9129, RPMI-1640, 35° C., 4 to 48 hours
Procedure, shortened: as §1

[14] = system: Trichophyton mentagrophytes B. 32663; assay: as above; type: cell-based; details: T. mentagrophytes B. 32663, RPMI-1640, 35° C., 4 to 48 hours
Procedure, shortened: as §1

ICR mice = details: for LD50: single oral administration in corn oil containing 30% DMSO, observed for 7 days
Experimental: 30 four-week-old, specific pathogen-free ICR mice, 15 female mice each weighing about 15.8 to 22.3 g and 15 male mice each weighing about 18.7 to 25.6 g, were provided by the Animal Center of Korean Research Institute of Chemical and Technology.
When the mice became five-week-old, 15 female mice each weighing about 17.0 to 22.3 g and 15 male mice each weighing about 22.0 to 27.7 g were bred for 6 days before the experiment under an environment of […], 50±10% relative humidity, 12L/12D photoperiod, 10-20 ventilation and 150-300 Lux illumination, with free access to food(Cheil Fodder Co.) which had been sterilized by using 2.0 Mrad radiation and water sterilized by U.V. sterilizer.
The compound of Example 26 of the present invention was dissolved in corn oil containing 30% DMSO and the solution was orally administered in doses of 10, 50, 100, 500, 1,000 and 2,000 mg of the compound/kg of the body weight(10 ml of the sample volume/kg of the body weight). […] The weight changes of the mice were recorded every day to examine the effect of the test compound. Further, on the 7th day, the mice were sacrificed and the internal organs were visually examined.

Compound: CC(=O)N1CCN(c2ccc(OCC3COC(Cn4ccnc4)(c4ccc(Cl)cc4Cl)O3)cc2)CC1 (centres unmarked) [ketoconazole]
- LD50 (mouse [1]): 702 mg/kg

Compound: C[C@@H]1[C@H](O)[C@@H](C)/C=C/C=C/C=C/C=C/C=C/C=C/C=C/[C@H](O[C@@H]2O[C@H](C)[C@@H](O)[C@H](N)[C@@H]2O)C[C@@H]2O[C@](O)(C[C@@H](O)C[C@@H](O)[C@H](O)CC[C@@H](O)C[C@@H](O)CC(=O)O[C@H]1C)C[C@H](O)[C@H]2C(=O)O [amphotericin B]
- LD50 (mouse [2]): 4 mg/kg

Compound: COc1cccc(C(=C(F)OCC2COC(Cn3ccnc3)(c3ccc(Cl)cc3Cl)O2)C(F)(F)F)c1 (centres unmarked) [Example 26]
- Minimal inhibitory concentration (MIC) [3]: 3.13 µg/mL (≈ 5.72 µM)
- Minimal inhibitory concentration (MIC) [4]: 6.25 µg/mL (≈ 11.4 µM)
- Minimal inhibitory concentration (MIC) [5]: 6.25 µg/mL (≈ 11.4 µM)
- Minimal inhibitory concentration (MIC) (Candida albicans C1-2): 6.25 µg/mL (≈ 11.4 µM)
- Minimal inhibitory concentration (MIC) [6]: 0.39 µg/mL (≈ 0.713 µM)
- Minimal inhibitory concentration (MIC) (Candida krusei K. 11655): 25.0 µg/mL (≈ 45.7 µM)
- Minimal inhibitory concentration (MIC) [7]: 12.5 µg/mL (≈ 22.8 µM)
- Minimal inhibitory concentration (MIC) [8]: 12.5 µg/mL (≈ 22.8 µM)
- Minimal inhibitory concentration (MIC) [9]: 1.56 µg/mL (≈ 2.85 µM)
- Minimal inhibitory concentration (MIC) [10]: 1.56 µg/mL (≈ 2.85 µM)
- Minimal inhibitory concentration (MIC) [11]: 0.39 µg/mL (≈ 0.713 µM)
- Minimal inhibitory concentration (MIC) [12]: 6.25 µg/mL (≈ 11.4 µM)
- Minimal inhibitory concentration (MIC) [13]: 1.56 µg/mL (≈ 2.85 µM)
- Minimal inhibitory concentration (MIC) [14]: 0.78 µg/mL (≈ 1.43 µM)
- LD50 (ICR mice; female): approximately 2,000 mg/kg
- LD50 (ICR mice; male): higher than 2,000 mg/kg
- survival at day 7 (ICR mice; single oral dose of 1,000 mg/kg or below): All the mice were alive at day 7
- weight loss (ICR mice; single oral doses 10 to 2,000 mg/kg, 7 day test period): no weight loss was observed
